The results in this text go back to US20240228469A1, “PCSK9 INHIBITORS AND METHODS OF USE THEREOF” (AstraZeneca AB, priority 2022, published 2024).

In assay [1] the target is T1, potassium ion channel hERG (Homo sapiens, UniProt Q12809).
T1 construct: expressed in transfected cells; host or cells: Chinese hamster ovary K1 (CHO)
Put plainly: Assay 5 hERG assay (patch clamp, CHO cells over-expressing hERG). To be noted: SyncroPatch 384PE, room temperature, geometric mean, read-out: Assay 5 (hERG Hu CHO if EPh CR-Syncro) GMean IC50. The class given is cell-based. The method, then: This assay (human Ether-d-go-go-Related Gene) measures activity of the compounds at the potassium ion channel hERG (human Ether-d-go-go-Related Gene).
Experiments were performed on the SyncroPatch 384PE high throughput patch clamp platform at room temperature and medium resistance chips with 4 patch holes per site. Chinese hamster ovary K1 (CHO) cell lines over-expressing the ion channel of choice (hERG) were used in assay-ready format and kept in liquid nitrogen or were used from live culture. Cells were either thawed and diluted in HBSS or were detached from flasks and resuspended in HBSS. HBSS comprised 140 mM NaCl, 4 mM KCl, 10 mM HEPES and 5 mM Glucose (pH7.4). The internal patch clamp solution was KF 120 mM, KCl 20 mM, HEPES 10 mM, EGTA 10 mM, and 25 PM Escin (pH 7.2). After the sealing process was complete, the external solution was exchanged for external patch clamp solution comprising NaCl 80 mM, KCl 4 mM, HEPES 10 mM, CaCl2 2 mM, MgCl2 1 mM, glucose 5 mM, and NMDG 60 mM (pH 7.4). All solutions were stored at room temperature, except Escin, which was stored at 4° C. All test compounds were dispensed in greiner-bio 384 well plates and tested in a 6 point cumulative assay (final DMSO concentration 0.33%). Only wells that passed previously agreed acceptance criteria for this platform were used in this analysis (30 MegaOhm seal resistance, Z prime >0.4 and current size >0.2 nA). […]
(In general: Block of hERG is tested as a sign of cardiac risk.)

Assay [2] has as its target T2, PCSK9 (Homo sapiens, UniProt Q8NBP7, G670E/V474I). As to the kind of experiment: biochemical.
For assay [3], the target named is GSK3β (Glycogen synthase kinase-3 beta) (Homo sapiens, UniProt P49841). Put plainly: Assay 6 GSK3β assay (ThermoFisher Z-Lyte FRET). To be noted: ATP Conc: 10 μM, geometric mean; read-out: Assay 6 (GSK3β FRET-Z-Lyte Cr) GMean IC50. The format is biochemical. The method, then: This assay measures the activity of the compounds at GSK33 (Glycogen synthase kinase-3 beta).
Chain of GSK3β (Glycogen synthase kinase-3 beta) (P49841 whole entry): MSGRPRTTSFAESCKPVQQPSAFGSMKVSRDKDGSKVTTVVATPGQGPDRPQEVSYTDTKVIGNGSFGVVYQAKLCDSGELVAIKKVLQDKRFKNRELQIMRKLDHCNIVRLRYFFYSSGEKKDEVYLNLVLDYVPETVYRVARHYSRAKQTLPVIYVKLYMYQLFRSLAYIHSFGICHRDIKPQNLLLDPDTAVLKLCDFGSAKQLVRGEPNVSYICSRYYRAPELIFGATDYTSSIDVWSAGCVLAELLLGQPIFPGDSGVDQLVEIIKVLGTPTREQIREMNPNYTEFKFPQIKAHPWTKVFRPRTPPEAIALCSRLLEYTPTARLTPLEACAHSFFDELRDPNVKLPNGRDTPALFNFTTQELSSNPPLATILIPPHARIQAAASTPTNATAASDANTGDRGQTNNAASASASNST
The test compounds were screened in 1% DMSO (final) in the well. For 10 point titrations, 3-fold serial dilutions are conducted from the starting concentration of 10 PM.
Bar-coded Corning, low volume NBS, black 384-well plate • 1. 2.5 μL—4× Test Compound or 100 nL 100× plus 2.4 μL kinase buffer • 2. 5 μL—2× Peptide/Kinase Mixture • 3. 2.5 μL—4×ATP Solution • 4. 30-second plate shake • 5. 60-minute Kinase Reaction incubation at room temperature • 6. 5 μL—Development Reagent Solution • 7. 30-second plate shake • 8. 60-minute Development Reaction incubation at room temperature • 9. Read on fluorescence plate reader and analyse the data
In step 2, the 2×GSK3β (GSK3 beta)/Ser/Thr (Glycogen synthase kinase-3 beta/Serine/Threonine) 09 mixture is prepared in 50 mM HEPES (4-(2-hydroxyethyl)-1-piperazineethanesulfonic acid) pH 7.5, 0.01% BRIJ-35, 10 mM MgCl2, 1 mM EGTA (egtazic acid). The final 10 μL Kinase Reaction consists of 0.22-0.92 ng GSK3β (GSK3 beta) and 2 PM Ser/Thr 09 in 50 mM HEPES pH 7.5, 0.01% BRIJ-35, 10 mM MgCl2, 1 mM EGTA.
In step 3 the ATP Solution is diluted to a 4× working concentration in Kinase Buffer (50 mM HEPES pH 7.5, 0.01% BRIJ-35, 10 mM MgCl2, 1 mM EGTA).
In Step 6 the Development Reagent is diluted 1:512 in Development Buffer (10× Novel PKC Lipid Mix: 2 mg/mL Phosphatidyl Serine, 0.2 mg/mL DAG in 20 mM HEPES, pH 7.4, 0.3% CHAPS).
SelectScreen® Kinase Profiling Service uses XLfit from IDBS. The dose response curve is curve fit to model number 205 (sigmoidal dose-response model).

Assay [4] has as its target T2, PCSK9. As to the kind of experiment: Assay 3 PCSK9 LDL-C uptake assay in HepG2 cells. The conditions noted are these: 125 nM PCSK9, pHrodo Red-LDL, read-out: Assay 3 LDL uptake potency. More on the design: TEV site (C); His6 (C); host or cells: added to HepG2 (ATCC #HB-8065). The format is cell-based. The source says: This assay measures for PCSK9 antagonist activity based on a test compound's capacity to restore LDL-C-uptake in HepG2 cells. The assay is based on exogenous PCSK9 and LDL-C complexed with a pH-sensitive dye. Outside the cells, at neutral pH, the pHrodo Red-LDL is dimly fluorescent but upon LDLR mediated endocytosis it fluoresces brightly. PCSK9 traffics the LDLR to intracellular degradation and reduces uptake of LDL-C. Inhibition of PCSK9 reduces LDLR degradation and the increased LDL-C uptake is quantified by fluorescence microscopy.
• Cell medium: MEM supplemented with 10% FBS, 1×NEAA and Sodium Pyruvate • Assay medium: OptiMem supplemented with penicillin/streptomycin • Cells: HepG2 (ATCC #HB-8065)
• 1. Cryopreserved HepG2 cells were thawed in assay medium and centrifuged for 5 min at 250 g. Supernatant was discarded and the cell pellet resuspended in cell medium and counted with a Nucleocounter. Cells were again centrifuged 5 min at 250 g and the pellet was resuspended to 500000 cells/mL in assay medium. • 2. 20 μL of above cell mix was dispensed into black μclear TC treated 384 well plates with Multidrop Combi and left at room temperature for 20 minutes. • 3. Plates were incubated at 37° C., 5% CO2 for 24 h
• 1. Test compounds were prepared in concentration response in DMSO with a half-log dilution factor in DMSO in Echo 384 LDV plates starting at 10 mM. • 2. 30 nL of above test compounds were dispensed with Echo 655 to cells for a top concentration of 10 μM • 3. 10 μL PCSK9 in assay medium was dispensed to cells with Multidrop Combi for 125 nM final concentration in the wells. • 4. Plates were incubated at 37° C., 5% CO2 for 24 h
• 1. 10 μL pHrodo Red-LDL in assay medium was dispensed to cells with Multidrop Combi for […] • 2. Plates were incubated at 37° C., 5% CO2 and imaged with the Incucyte S3 after 4 h and 24 h
Image data was processed using Incucyte 2021, a software to identify cells and red fluorescent intensity. Screener was used to further process data. Data was normalized as % effect of the signal between median values of the on-plate controls of DMSO and 100 nM Evolocumab according to the formula % effect=−100*(x−DMSO)/(Evolocumab−DMSO) where x equals the measured signal. Concentration response data of the normalized values were fitted using a four-parameter logistic fit.

A value given as a limit tells only on which side of the number the result lay.

T1 sequence (Q12809 whole entry): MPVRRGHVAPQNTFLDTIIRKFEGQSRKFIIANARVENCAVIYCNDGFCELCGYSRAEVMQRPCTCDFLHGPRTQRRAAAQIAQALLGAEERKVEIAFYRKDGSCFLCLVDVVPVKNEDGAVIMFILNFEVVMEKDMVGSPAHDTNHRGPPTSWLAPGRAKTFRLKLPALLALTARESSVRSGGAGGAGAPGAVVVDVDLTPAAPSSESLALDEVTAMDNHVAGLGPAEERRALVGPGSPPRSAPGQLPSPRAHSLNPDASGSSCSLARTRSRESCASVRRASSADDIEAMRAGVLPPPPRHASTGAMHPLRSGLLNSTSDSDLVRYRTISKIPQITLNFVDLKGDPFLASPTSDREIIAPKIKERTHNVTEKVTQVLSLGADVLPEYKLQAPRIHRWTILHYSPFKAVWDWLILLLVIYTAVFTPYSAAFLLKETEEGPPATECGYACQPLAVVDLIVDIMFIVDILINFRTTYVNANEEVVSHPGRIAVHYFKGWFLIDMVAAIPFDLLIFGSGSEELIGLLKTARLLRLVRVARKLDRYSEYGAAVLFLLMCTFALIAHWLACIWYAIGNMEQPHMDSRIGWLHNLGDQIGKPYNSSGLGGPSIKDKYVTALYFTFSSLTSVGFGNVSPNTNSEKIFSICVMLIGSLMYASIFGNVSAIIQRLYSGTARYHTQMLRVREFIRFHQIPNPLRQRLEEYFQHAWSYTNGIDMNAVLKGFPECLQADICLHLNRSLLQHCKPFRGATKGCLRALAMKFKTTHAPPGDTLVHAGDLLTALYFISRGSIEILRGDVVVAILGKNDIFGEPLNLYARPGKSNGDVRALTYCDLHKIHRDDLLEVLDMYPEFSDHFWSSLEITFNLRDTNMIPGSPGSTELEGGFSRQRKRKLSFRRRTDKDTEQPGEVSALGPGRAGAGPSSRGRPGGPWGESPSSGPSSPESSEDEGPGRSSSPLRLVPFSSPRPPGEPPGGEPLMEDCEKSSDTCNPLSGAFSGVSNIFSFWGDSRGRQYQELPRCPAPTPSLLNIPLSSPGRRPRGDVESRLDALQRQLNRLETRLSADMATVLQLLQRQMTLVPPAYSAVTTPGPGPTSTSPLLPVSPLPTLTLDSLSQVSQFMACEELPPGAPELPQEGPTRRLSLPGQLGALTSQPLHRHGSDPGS
T2 sequence (Q8NBP7 with tags, fused parts or gaps V474I/G670E): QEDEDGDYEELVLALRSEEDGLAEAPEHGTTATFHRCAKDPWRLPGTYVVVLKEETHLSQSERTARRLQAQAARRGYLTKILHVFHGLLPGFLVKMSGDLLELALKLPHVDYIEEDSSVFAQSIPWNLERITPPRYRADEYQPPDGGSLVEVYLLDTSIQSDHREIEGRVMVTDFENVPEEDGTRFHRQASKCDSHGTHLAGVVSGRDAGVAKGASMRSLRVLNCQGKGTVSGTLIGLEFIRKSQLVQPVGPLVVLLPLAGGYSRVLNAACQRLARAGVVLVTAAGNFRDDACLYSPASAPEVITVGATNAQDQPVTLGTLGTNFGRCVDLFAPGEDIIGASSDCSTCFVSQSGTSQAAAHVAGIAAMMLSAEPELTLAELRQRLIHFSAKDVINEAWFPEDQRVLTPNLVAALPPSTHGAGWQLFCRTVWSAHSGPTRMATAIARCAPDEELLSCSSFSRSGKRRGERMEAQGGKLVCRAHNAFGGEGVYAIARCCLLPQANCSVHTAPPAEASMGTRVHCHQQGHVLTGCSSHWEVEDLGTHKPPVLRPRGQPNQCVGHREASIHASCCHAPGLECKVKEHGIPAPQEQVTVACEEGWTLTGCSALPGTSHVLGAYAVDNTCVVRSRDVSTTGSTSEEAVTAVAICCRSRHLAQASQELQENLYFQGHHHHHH

One may read the IC50 as the concentration at which inhibition is half-maximal. Consider `O=C(NC1COC1)c1cnc(N[C@H]2CC[C@H](Nc3ccc(-n4cc(Cl)ccc4=O)cn3)C2)nn1` [Example 158, 3-(((1S,3S)-3-((5-Chloro-2-oxo-2H-[1,3′-bipyridin]-6′-yl)amino)cyclopentyl)amino)-N-(oxetan-3-yl)-1,2,4-triazine-6-carboxamide], for which the IC50 is more than 40100 nM in assay [1], 7.6 nM in assay [2] and more than 10000 nM in assay [3]. In addition, the EC50 in assay [4] came to 200 nM.
Regarding `Cc1cnc(N[C@H]2CC[C@H](Nc3ccc(-n4c(=O)n(C)c5ccc(C#N)nc54)cn3)C2)nn1` [Example 213, 1-Methyl-3-(6-(((1S,3S)-3-((6-methyl-1,2,4-triazin-3-yl)amino)cyclopentyl)amino)pyridin-3-yl)-2-oxo-2,3-dihydro-1H-imidazo[4,5-b]pyridine-5-carbonitrile], the IC50 was more than 40100 nM in assay [1], 1.6 nM in assay [2] and more than 10000 nM in assay [3]. For the same molecule, the EC50 in assay [4] came to 200 nM.
As for `O=c1ccc(-c2nnn[nH]2)cn1-c1ccc(N[C@H]2CC[C@H](Nc3ncc(C4CC4)nn3)C2)nc1` [Example 124, 6′-(((1S,3S)-3-((6-Cyclopropyl-1,2,4-triazin-3-yl)amino)cyclopentyl)amino)-5-(1H-tetrazol-5-yl)-2H-[1,3′-bipyridin]-2-one], the IC50 in assay [1] is more than 40100 nM; in assay [2] it was 1 nM; in assay [3] it was 1070 nM. The EC50 in assay [4] stood at 100 nM.
In the same order, the values of `Cc1ccc(=O)n(-c2ccc(N[C@H]3CC[C@H](Nc4ncc(C(=O)NC5COC5)nn4)C3)nc2)c1` [Example 156, 3-(((1S,3S)-3-((5-Methyl-2-oxo-2H-[1,3′-bipyridin]-6′-yl)amino)cyclopentyl)amino)-N-(oxetan-3-yl)-1,2,4-triazine-6-carboxamide] are more than 40100 nM, 14 nM, more than 10000 nM and 100 nM.
Regarding `Cc1cnc(N[C@H]2CC[C@H](Nc3ccc(-n4cccc(C#N)c4=O)cn3)C2)nn1` [Example 136, 6′-(((1S,3S)-3-((6-Methyl-1,2,4-triazin-3-yl)amino)cyclopentyl)amino)-2-oxo-2H-[1,3′-bipyridine]-3-carbonitrile], the IC50 in assay [1] was more than 40100 nM; in assay [2] it was 3 nM; in assay [3], more than 10000 nM. In addition, the EC50 in assay [4] stood at 200 nM.
Regarding `Cc1cnc(N[C@H]2CC[C@H](Nc3ccc(-n4cccc(-c5cn[nH]c5)c4=O)cn3)C2)nn1` [Example 199, 6′-(((1S,3S)-3-((6-Methyl-1,2,4-triazin-3-yl)amino)cyclopentyl)amino)-3-(1H-pyrazol-4-yl)-2H-[1,3′-bipyridin]-2-one], the results for the IC50 in assay [1], in assay [2] and in assay [3] were more than 40100 nM, 2 nM and more than 10000 nM, respectively. The EC50 in assay [4] amounted to 100 nM.
Regarding `Cc1cnc(N[C@H]2CC[C@H](Nc3ccc(-n4cc(-c5c[nH]nn5)ccc4=O)cn3)C2)nn1` [Example 208, 6′-(((1S,3S)-3-((6-Methyl-1,2,4-triazin-3-yl)amino)cyclopentyl)amino)-5-(1H-1,2,3-triazol-4-yl)-2H-[1,3′-bipyridin]-2-one], the IC50 in assay [1] is more than 40100 nM; in assay [2], 6.5 nM; in assay [3] it was 1710 nM. Further, the EC50 in assay [4] came to 300 nM.
For `Cc1cccn(-c2ccc(N[C@H]3CC[C@H](Nc4ncc(C(=O)NC5COC5)nn4)C3)nc2)c1=O` [Example 155, 3-(((1S,3S)-3-((3-Methyl-2-oxo-2H-[1,3′-bipyridin]-6′-yl)amino)cyclopentyl)amino)-N-(oxetan-3-yl)-1,2,4-triazine-6-carboxamide], the IC50 in assay [1] was more than 40100 nM; in assay [2] it was 2.7 nM; in assay [3], more than 10000 nM. Further, the EC50 in assay [4] amounted to 100 nM.
`COc1ccc(=O)n(-c2ccc(NCC(CCO)CNc3ncc(C)nn3)nc2)c1` (racemic) [Example 317, rac-6′-((4-Hydroxy-2-(((6-methyl-1,2,4-triazin-3-yl)amino)methyl)butyl)amino)-5-methoxy-2H-[1,3′-bipyridin]-2-one]: the values for the IC50 in assay [1] and in assay [2] were more than 40000 nM and 4430 nM, respectively. Besides, the EC50 in assay [4] is more than 800 nM.
With `Cn1cccc(-c2ccc(N[C@H]3CC[C@H](Nc4ncc(C5CC5)nn4)C3)nc2)c1=O` [Example 60, 6′-(((1S,3S)-3-((6-Cyclopropyl-1,2,4-triazin-3-yl)amino)cyclopentyl)amino)-1-methyl-[3,3′-bipyridin]-2(1H)-one], the IC50 in assay [1] was 21000 nM; in assay [2] it was 9.1 nM; in assay [3], more than 10000 nM.
With `COc1cccnc1-c1ccc(N[C@H]2CC[C@H](Nc3ncc(C)nn3)C2)nc1` [Example 304, (1S,3S)—N′-(3-Methoxy-[2,3′-bipyridin]-6′-yl)-N^3-(6-methyl-1,2,4-triazin-3-yl)cyclopentane-1,3-diamine], the results for the IC50 in assay [1], in assay [2] and in assay [3] were more than 40100 nM, 96 nM and more than 10000 nM, respectively.
As for `COc1ccccc1-c1ccc(N[C@H]2CC[C@H](Nc3ncc(C)nn3)C2)nc1` [Example 306, (1S,3S)—N′-(5-(2-Methoxyphenyl)pyridin-2-yl)-N^3-(6-methyl-1,2,4-triazin-3-yl)cyclopentane-1,3-diamine], the IC50 in assay [1] was 4500 nM; in assay [2], 302 nM; in assay [3] it was more than 10000 nM.
Consider `COc1cccc(-c2ccc(N[C@H]3CC[C@H](Nc4ncc(C)nn4)C3)nc2)n1` [Example 305, (1S,3S)—N′-(6-Methoxy-[2,3′-bipyridin]-6′-yl)-N^3-(6-methyl-1,2,4-triazin-3-yl)cyclopentane-1,3-diamine], for which the concentration for half-maximal inhibition (IC50) in assay [1] is 3200 nM; in assay [2], 91 nM; in assay [3] it was more than 10000 nM.
